Results as given in paper PMC12083017, “Enhanced oral bioavailability of two Cistanche polysaccharides in acteoside: an in-depth analysis of intestinal flora, short-chain fatty acids, and pharmacokinetic regulation” (Frontiers in Nutrition, 2025).
Where two headings read alike, the source gives them in different places.

Tests used:
[1] = Pharmacokinetics of acteoside and its metabolites in rat plasma after oral acteoside (UPLC-QqQ-MS); format: in vivo, male Sprague–Dawley rats; settings: for AUC(0-inf) / AUC(0-t) / Tmax / half-life / Cmax / MRT last / MRT inf: male, Sprague-Dawley, rat, plasma, po, 100 mg/kg; for MRT last: read-out: MRT(0-t); for MRT inf: read-out: MRT(0-∞)
Source text: After a week of acclimatization, rats were split into three groups at random: the wine-processed Cistanche polysaccharide group (WCP group), the unprocessed Cistanche polysaccharide group (UCP group), and the blank control group (Control group). Six rats each group were raised in the same cage for breeding. Prior to the experiment, provide water and regular laboratory meals to the rats at will and fast for one night before the experiment. In order to ensure the continuous intake of Cistanche polysaccharides, it was calculated according to the requirements of the Chinese Pharmacopoeia ([16]) based on the daily dosage of Cistanche for adults, the polysaccharide yield of Cistanche polysaccharides and the equivalent conversion formula of the drug administration between humans and rats ([17]). An appropriate amount of raw Cistanche polysaccharide and Cistanche wine polysaccharide were weighed, dissolved in pure water, and prepared with 15.06 g·kg^-1 administration solution for continuous administration for 21 days. After fasting overnight, on day 22, two fresh fecal samples were collected from each rat, put straight into a sterile tube from the anus, avoiding contact with skin or urine, and stored in a -80°C freezer immediately after freezing with liquid nitrogen for subsequent analysis. For the pharmacokinetics, in a 1.5 mL heparinized centrifuge tube, 0.3 mL of continuous blood collected from the orbital vein was taken from 0 min, 5 min, 10 min, 30 min, 1.0 […], and 36 h following oral administration of acteoside (100 mg/kg) in the three groups. Using a cryo-centrifuge, plasma samples were produced by centrifuging at 800 g for ten minutes at 4°C. After that, plasma samples were gathered and kept for later examination at -80°C. […] Following this,20 μL of genistein (1 μg/mL IS) solution and 600 μL of cold acetonitrile were then included and centrifuged for 5 min, the […] proteins were separated by vortexing for 5 min, and then they were spun down for 15 min at 4°C at 14,000 rpm. The supernatant was gathered and dried at 40°C with a light nitrogen stream. The dried remnant was then immersed in 100 μL of 25% aqueous acetonitrile fluid, and centrifugation was performed again for 10 min at 4°C at 14,000 rpm. Ultimately, the LC-MS/MS system was injected with 2 μL of the liquid for analysis. A 1.7 μm and 2.1 × 100 mm I.D. […] With a column temperature of 30°C, the flow rate was fixed at 0.3 mL/min. In the mass spectrometry analysis, negative ionization mode was performed with the following optimized parameters: capillary voltage, 3.0 kV; desolvation temperature, 400°C. […] Thus, multiple reaction monitoring (MRM) of the acteoside transitions at 623.37 → 161.02 m/z, caffeic acid transitions at 179.01 → 135.03 m/z, hydroxytyrosol transitions at 153.03 → 122.95 m/z, genistein transitions at 269.08 → 132.57 m/z was used for quantification. […] Data were processed using Masslynx workstation data acquisition and qualitative analysis software (4.1, Waters, USA). Using the DAS program (Chinese Pharmacological Society, Beijing, China), pharmacokinetic parameters were estimated.

[2] = format: physicochemical; settings: rat; for Short-term stability (RSD,%): 4 h; for Post-preparation stability (RSD,%): 24 h; for Long-term stability (RSD,%): 15 days
Method: A 4°C freezer was then used to make and store the stock solution (1 mg/mL). Moreover, 50% methanol was used to dilute 1 μg/mL of the IS working solution. […] Before being analyzed, the entire set of QC samples were kept at −80°C. An examination of stability using QC samples at low, medium, and high doses. Short-term stability was measured by injecting samples after staying 4 h at room temperature (25°C). After preparation, the sample was kept at 4°C for 24 h, and the dosage was injected to ascertain the sample’s stability. To determine long-term stability, samples were frozen at −80°C for 15 days before being injected. By thawing the samples three times in a row at room temperature and a freezer at −20°C, the freeze–thaw stability was ascertained.

[3] = acteoside in rat plasma, oral acteoside 100 mg/kg, Control group, n = 6
[4] = acteoside in rat plasma, oral acteoside 100 mg/kg, UCP group, n = 6
[5] = acteoside in rat plasma, oral acteoside 100 mg/kg, WCP group, n = 6
[6] = metabolite in rat plasma following oral acteoside 100 mg/kg, Control group, n = 6
[7] = metabolite in rat plasma following oral acteoside 100 mg/kg, UCP group, n = 6
[8] = metabolite in rat plasma following oral acteoside 100 mg/kg, WCP group, n = 6

Compound `C[C@@H]1O[C@@H](O[C@@H]2[C@@H](O)[C@H](OCCc3ccc(O)c(O)c3)O[C@H](CO)[C@H]2OC(=O)/C=C/c2ccc(O)c(O)c2)[C@H](O)[C@H](O)[C@H]1O` [Acteoside, acteoside] has an AUC(0-inf) [1, 3] of 4360 ± 130 ng·h/mL, an AUC(0-t) [1, 3] of 4200 ± 153 ng·h/mL and a Tmax [1, 3] of 0.5 h. For the same compound, the half-life [1, 3] was 2.06 ± 1.3 h, the Cmax ([1]; acteoside in rat plasma, oral acteoside 100 mg/kg, Control group, n = 6, read-out: Cmax) was 863 ± 63.4 ng/mL and the MRT last [1, 3] was 3.94 ± 0.165 h. It also gave an MRT inf [1, 3] of 4.34 ± 0.512 h, an AUC(0-t) ([1]; acteoside in rat plasma, oral acteoside 100 mg/kg, UCP group (21 days UCP before), n = 6) of 4980 ± 231 ng·h/mL and an AUC(0-inf) [1, 4] of 5050 ± 267 ng·h/mL. The Tmax [1, 4] was 0.75 h, the Cmax ([1]; acteoside in rat plasma, oral acteoside 100 mg/kg, UCP group, n = 6, read-out: Cmax) was 1030 ± 98.3 ng/mL and the MRT last [1, 4] was 4.94 ± 0.165 h. For the same compound, the MRT inf [1, 4] was 5.29 ± 0.629 h, the AUC(0-t) ([1]; acteoside in rat plasma, oral acteoside 100 mg/kg, WCP group (21 days WCP before), n = 6) was 6660 ± 543 ng·h/mL and the AUC(0-inf) [1, 5] was 6690 ± 633 ng·h/mL. For the same compound, the Tmax [1, 5] was 0.75 h, the Cmax ([1]; acteoside in rat plasma, oral acteoside 100 mg/kg, WCP group, n = 6, read-out: Cmax) was 1590 ± 103 ng/mL and the MRT last [1, 5] was 4.996 ± 0.032 h. For the same compound, the MRT inf [1, 5] was 5.6 ± 0.837 h, the Cmax ([1]; rat plasma, oral acteoside 100 mg/kg, Control group, read-out: mean Cmax of acteoside) was 863 ng/mL and the Cmax ([1]; rat plasma, oral acteoside 100 mg/kg, UCP group, read-out: mean Cmax of acteoside) was 1030 ng/mL. For the same compound, the Cmax ([1]; rat plasma, oral acteoside 100 mg/kg, WCP group, read-out: mean Cmax of acteoside) was 1590 ng/mL, the “AUC(0-∞) of acteoside, increase after UCP relative to control” value ([1]; rats, oral acteoside 100 mg/kg) was 1.16 times and the “AUC(0-∞) of acteoside, increase after WCP relative to control” value ([1]; rats, oral acteoside 100 mg/kg) was 1.54 times. For the same compound, the “Cmax of acteoside, UCP group relative to control group” value ([1]; rats, oral acteoside 100 mg/kg) was 1.19 times, the “Cmax of acteoside, WCP group relative to control group” value ([1]; rats, oral acteoside 100 mg/kg) was 1.84 times and the “t1/2 of acteoside, WCP group relative to UCP group” value ([1]; rats, oral acteoside 100 mg/kg) was 1.18 times. The “Freeze–thaw stability (RSD,%)” value ([2]; 25 ng/mL) was 7.93%, the “Freeze–thaw stability (RSD,%)” value ([2]; 200 ng/mL) was 4.56% and the “Freeze–thaw stability (RSD,%)” value ([2]; 1000 ng/mL) was 4.45%. The “Short-term stability (RSD,%)” value ([2]; 25 ng/mL) was 6.91%, the “Short-term stability (RSD,%)” value ([2]; 200 ng/mL) was 3.15% and the “Short-term stability (RSD,%)” value ([2]; 1000 ng/mL) was 2.79%. The “Post-preparation stability (RSD,%)” value ([2]; 25 ng/mL) was 7.03%, the “Post-preparation stability (RSD,%)” value ([2]; 200 ng/mL) was 3.46% and the “Post-preparation stability (RSD,%)” value ([2]; 1000 ng/mL) was 3.68%. For the same compound, the “Long-term stability (RSD,%)” value ([2]; 25 ng/mL) was 8.28%, the “Long-term stability (RSD,%)” value ([2]; 200 ng/mL) was 6.67% and the “Long-term stability (RSD,%)” value ([2]; 1000 ng/mL) was 4.99%.
Compound `O=C(O)/C=C/c1ccc(O)c(O)c1` [Caffeic acid, caffeic acid] has an AUC(0-inf) [1, 6] of 110 ± 15.4 ng·h/mL, an AUC(0-t) [1, 6] of 76.1 ± 13.3 ng·h/mL and a Tmax [1, 6] of 0.75 h. It also gave a half-life [1, 6] of 2.17 ± 0.693 h, a Cmax ([1]; metabolite in rat plasma following oral acteoside 100 mg/kg, Control group, n = 6, read-out: Cmax) of 30.4 ± 14.2 ng/mL and an MRT last [1, 6] of 1.56 ± 0.172 h. The MRT inf [1, 6] was 2.51 ± 0.273 h, the AUC(0-inf) [1, 7] was 117 ± 13.3 ng·h/mL and the AUC(0-t) [1, 7] was 100 ± 17.7 ng·h/mL. It also gave a Tmax [1, 7] of 0.75 h, a Cmax ([1]; metabolite in rat plasma following oral acteoside 100 mg/kg, UCP group, n = 6, read-out: Cmax) of 44.1 ± 15.8 ng/mL and an MRT last [1, 7] of 1.54 ± 0.166 h. For the same compound, the MRT inf [1, 7] was 2.18 ± 0.267 h, the AUC(0-inf) [1, 8] was 144 ± 26.7 ng·h/mL and the AUC(0-t) [1, 8] was 125 ± 25.9 ng·h/mL. For the same compound, the Tmax [1, 8] was 0.75 h, the half-life [1, 8] was 1.29 ± 0.914 h and the Cmax ([1]; metabolite in rat plasma following oral acteoside 100 mg/kg, WCP group, n = 6, read-out: Cmax) was 55.5 ± 16.9 ng/mL. For the same compound, the MRT last [1, 8] was 1.52 ± 0.161 h, the MRT inf [1, 8] was 2.1 ± 0.256 h and the “Cmax of metabolite, WCP group relative to UCP group” value ([1]; rats, following oral acteoside 100 mg/kg) was 1.26 times. For the same compound, the “Freeze–thaw stability (RSD,%)” value ([2]; 25 ng/mL) was 9.14%, the “Freeze–thaw stability (RSD,%)” value ([2]; 200 ng/mL) was 8.23% and the “Freeze–thaw stability (RSD,%)” value ([2]; 1000 ng/mL) was 7.08%. The “Short-term stability (RSD,%)” value ([2]; 25 ng/mL) was 7.78%, the “Short-term stability (RSD,%)” value ([2]; 200 ng/mL) was 7.34% and the “Short-term stability (RSD,%)” value ([2]; 1000 ng/mL) was 4.91%. The “Post-preparation stability (RSD,%)” value ([2]; 25 ng/mL) was 8.33%, the “Post-preparation stability (RSD,%)” value ([2]; 200 ng/mL) was 7.87% and the “Post-preparation stability (RSD,%)” value ([2]; 1000 ng/mL) was 6.87%. For the same compound, the “Long-term stability (RSD,%)” value ([2]; 25 ng/mL) was 9.75%, the “Long-term stability (RSD,%)” value ([2]; 200 ng/mL) was 8.56% and the “Long-term stability (RSD,%)” value ([2]; 1000 ng/mL) was 8.43%.
